Reference: patent US8785457B2 (Cellzome Limited, priority 2009, dated 2014)
Read-outs that look alike come from different tables or passages of the source.

Columns and labels:
PI3 Kbeta (PI3 Kb) = target: T1, PI3 Kbeta (PI3 Kb) (Homo sapiens, UniProt P42338); assay: kinobeads assay, PI3Kbeta; assay type: binding; conditions: kinobeads assay, Table 6; read-out: Inhibition values (IC50) PI3Kb
T1 construct: endogenous in cells; host or cells: cell lysate
Outline: (§1)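 In this bead competition format, compound and immobilized phenylmorpholin-chromen ligand compete for kinases in cell lysate. Eluted captured kinases were measured by multiplexed immunodetection, and IC50 was calculated.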

mTOR = target: T2, mTOR (Homo sapiens, UniProt P42345); assay: mTOR kinobeads assay (competitive binding in Jurkat cell lysate, immunodetection); conditions: kinobeads assay
T2 construct: endogenous in cells; host or cells: Jurkat, clone E6-1 (ATCC TIB-152) cell lysate
Outline: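 IC50 derived from dose-response curves of mTOR captured on immobilized phenylmorpholin-chromen beads, detected by antibody dot blot with infrared fluorescence.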

PI3Kalpha (PI3Ka) = target: T3, PI3Kalpha (PI3Ka) (Homo sapiens, UniProt P42336); assay: kinobeads assay, PI3Kalpha; assay type: binding; conditions: kinobeads assay, Table 6; for IC50: read-out: Inhibition values (IC50) PI3Ka
T3 construct: endogenous in cells; host or cells: cell lysate
T3 sequence (P42336 whole entry): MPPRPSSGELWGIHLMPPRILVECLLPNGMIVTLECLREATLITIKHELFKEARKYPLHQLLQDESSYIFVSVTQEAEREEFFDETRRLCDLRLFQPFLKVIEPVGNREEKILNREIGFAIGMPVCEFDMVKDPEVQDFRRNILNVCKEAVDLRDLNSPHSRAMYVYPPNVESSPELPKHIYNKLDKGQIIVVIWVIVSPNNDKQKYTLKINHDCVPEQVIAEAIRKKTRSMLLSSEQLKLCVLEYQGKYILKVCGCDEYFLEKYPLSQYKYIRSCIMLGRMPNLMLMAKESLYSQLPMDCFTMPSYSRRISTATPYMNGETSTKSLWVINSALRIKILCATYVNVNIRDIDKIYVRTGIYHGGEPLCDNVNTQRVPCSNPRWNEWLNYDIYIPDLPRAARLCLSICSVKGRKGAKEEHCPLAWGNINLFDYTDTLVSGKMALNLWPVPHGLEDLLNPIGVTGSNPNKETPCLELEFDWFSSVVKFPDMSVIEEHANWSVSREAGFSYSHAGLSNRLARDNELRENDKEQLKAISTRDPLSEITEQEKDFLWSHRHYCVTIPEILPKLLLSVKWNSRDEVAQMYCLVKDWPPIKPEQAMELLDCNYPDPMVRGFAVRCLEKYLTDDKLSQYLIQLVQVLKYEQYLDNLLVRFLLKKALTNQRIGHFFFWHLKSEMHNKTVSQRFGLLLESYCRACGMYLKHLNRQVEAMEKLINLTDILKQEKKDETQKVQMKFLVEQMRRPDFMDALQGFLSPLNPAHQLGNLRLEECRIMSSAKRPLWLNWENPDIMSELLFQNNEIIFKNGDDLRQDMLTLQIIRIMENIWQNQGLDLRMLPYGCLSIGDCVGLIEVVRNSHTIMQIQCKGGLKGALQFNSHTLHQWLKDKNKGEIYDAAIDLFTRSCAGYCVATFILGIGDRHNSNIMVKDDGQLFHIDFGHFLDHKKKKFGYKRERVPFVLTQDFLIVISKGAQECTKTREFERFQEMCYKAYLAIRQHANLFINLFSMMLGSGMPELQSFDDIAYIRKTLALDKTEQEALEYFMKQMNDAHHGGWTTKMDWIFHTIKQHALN
T3 sequence (P27986 whole entry partner): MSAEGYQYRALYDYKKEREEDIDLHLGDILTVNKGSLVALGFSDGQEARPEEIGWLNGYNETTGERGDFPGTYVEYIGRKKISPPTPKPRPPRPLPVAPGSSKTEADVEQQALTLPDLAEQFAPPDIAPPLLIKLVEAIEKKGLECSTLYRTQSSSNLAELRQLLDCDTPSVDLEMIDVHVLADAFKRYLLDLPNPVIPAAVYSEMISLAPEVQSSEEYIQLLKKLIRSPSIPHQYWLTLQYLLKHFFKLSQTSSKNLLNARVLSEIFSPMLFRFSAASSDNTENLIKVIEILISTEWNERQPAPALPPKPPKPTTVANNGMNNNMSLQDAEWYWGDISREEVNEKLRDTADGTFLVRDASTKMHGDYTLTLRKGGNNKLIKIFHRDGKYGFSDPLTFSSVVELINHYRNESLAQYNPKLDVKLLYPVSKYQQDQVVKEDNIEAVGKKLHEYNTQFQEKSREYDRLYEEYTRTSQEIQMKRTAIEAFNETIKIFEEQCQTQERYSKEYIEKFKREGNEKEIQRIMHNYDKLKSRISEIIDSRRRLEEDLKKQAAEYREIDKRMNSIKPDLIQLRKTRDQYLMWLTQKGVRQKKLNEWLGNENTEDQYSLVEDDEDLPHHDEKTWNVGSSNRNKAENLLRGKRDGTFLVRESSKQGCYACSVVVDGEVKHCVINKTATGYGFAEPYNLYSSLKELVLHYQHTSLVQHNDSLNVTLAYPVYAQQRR
Outline: as §1

[1] = Table 6, read-out: Inhibition values (IC50) mTOR
[2] = Table 4, read-out: Inhibition values (IC50) mTor

T1 sequence (P42338 whole entry): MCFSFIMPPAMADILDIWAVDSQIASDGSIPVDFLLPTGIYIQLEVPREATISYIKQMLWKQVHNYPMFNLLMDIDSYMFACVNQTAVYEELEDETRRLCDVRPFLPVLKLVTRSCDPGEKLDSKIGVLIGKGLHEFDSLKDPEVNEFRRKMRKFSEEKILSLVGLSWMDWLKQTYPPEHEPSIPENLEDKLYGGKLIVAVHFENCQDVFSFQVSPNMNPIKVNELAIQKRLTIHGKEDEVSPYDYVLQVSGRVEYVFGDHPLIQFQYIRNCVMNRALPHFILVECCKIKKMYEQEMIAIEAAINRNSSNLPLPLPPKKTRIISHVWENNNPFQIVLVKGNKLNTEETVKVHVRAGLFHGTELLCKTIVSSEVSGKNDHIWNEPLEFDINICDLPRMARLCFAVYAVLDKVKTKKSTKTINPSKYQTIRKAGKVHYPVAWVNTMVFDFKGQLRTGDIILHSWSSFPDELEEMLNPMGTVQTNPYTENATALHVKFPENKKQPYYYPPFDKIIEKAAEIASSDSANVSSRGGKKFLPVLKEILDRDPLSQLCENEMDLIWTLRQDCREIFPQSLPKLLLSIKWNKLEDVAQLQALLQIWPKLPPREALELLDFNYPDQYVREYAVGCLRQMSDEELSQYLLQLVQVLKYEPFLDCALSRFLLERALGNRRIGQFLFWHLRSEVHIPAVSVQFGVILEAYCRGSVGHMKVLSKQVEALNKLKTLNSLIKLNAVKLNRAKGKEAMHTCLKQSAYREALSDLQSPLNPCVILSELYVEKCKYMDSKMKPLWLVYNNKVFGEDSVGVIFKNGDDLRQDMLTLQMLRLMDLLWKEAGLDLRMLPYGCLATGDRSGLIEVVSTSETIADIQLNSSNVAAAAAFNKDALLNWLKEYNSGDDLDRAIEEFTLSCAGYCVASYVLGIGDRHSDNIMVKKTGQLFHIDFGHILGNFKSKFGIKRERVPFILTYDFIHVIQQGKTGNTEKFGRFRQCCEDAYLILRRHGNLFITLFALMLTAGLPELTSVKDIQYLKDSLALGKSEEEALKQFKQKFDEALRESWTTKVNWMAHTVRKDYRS
T1 sequence (P27986 whole entry partner): as the sequence (P27986 whole entry partner) above

Compound | IC50 (PI3 Kbeta (PI3 Kb)) [nM] | IC50 (mTOR; [1]) [nM] | Inhibition values (IC50) PI3Ka (PI3Kalpha (PI3Ka)) | IC50 (mTOR; [2]) [nM] | IC50 (PI3Kalpha (PI3Ka)) [nM]
CCNC(=O)Nc1ccc(-c2nc3c(c(N4CCOC[C@@H]4C)n2)CN(C(C)C)C3)cc1 [Example 74, (S)-1-ethyl-3-(4-(6-isopropyl-4-(3-methylmorpholino)-6,7-dihydro-5H-pyrrolo[3,4-d]pyrimidin-2-yl)phenyl)urea] | > 10000 | < 100 | D (D >10 μM) |  | 
CCOC(=O)N1Cc2nc(-c3ccc(NC(=O)NCCF)cc3)nc(N3CCOC[C@@H]3C)c2C1 [Example 120, (S)-ethyl 2-(4-(3-(2-fluoroethyl)ureido)phenyl)-4-(3-methylmorpholino)-5H-pyrrolo[3,4-d]pyrimidine-6(7H)-carboxylate] | > 10000 | < 100 | D (D >10 μM) |  | 
CC(=O)N1CCc2c(nc(-c3ccc(NC(=O)NC4CC4)cc3)nc2N2CCOC[C@@H]2C)C1 [Example 62, (S)-1-(4-(7-acetyl-4-(3-methylmorpholino)-5,6,7,8-tetrahydropyrido[3,4-d]pyrimidin-2-yl)phenyl)-3-cyclopropylurea] | > 10000 | < 100 | D (D >10 μM) | < 100 | 
CCNC(=O)Nc1ccc(-c2nc3c(c(N4CCOCC4)n2)CN(C(=O)OCC)C3)cc1 [Example 70, Ethyl 2-(4-(3-ethylureido)phenyl)-4-morpholino-5H-pyrrolo[3,4-d]pyrimidine-6(7H)-carboxylate] | > 10000 | < 100 | D (D >10 μM) |  | 
CC(C)CN1Cc2nc(-c3ccc(NC(=O)NC4CC4)cc3)nc(N3CCOC[C@@H]3C)c2C1 [Example 65, (S)-1-cyclopropyl-3-(4-(6-isobutyl-4-(3-methylmorpholino)-6,7-dihydro-5H-pyrrolo[3,4-d]pyrimidin-2-yl)phenyl)urea] | > 10000 | < 100 | D (D >10 μM) |  | 
CCNC(=O)Nc1ccc(-c2nc3c(c(N4CCOC[C@@H]4C)n2)CCN(CC(C)C)C3)cc1.O=CO [Example 76, (S)-1-ethyl-3-(4-(7-isobutyl-4-(3-methylmorpholino)-5,6,7,8-tetrahydropyrido[3,4-d]pyrimidin-2-yl)phenyl)urea formate] | > 10000 | < 100 | D (D >10 μM) |  | 
CCNC(=O)N1CCc2c(nc(-c3ccc(NC(=O)NC4CC4)cc3)nc2N2CCOC[C@@H]2C)C1 [Example 88, (S)-2-(4-(3-cyclopropylureido)phenyl)-N-ethyl-4-(3-methylmorpholino)-5,6-dihydropyrido[3,4-d]pyrimidine-7(8H)-carboxamide] | > 10000 | < 100 | D (D >10 μM) |  | 
CCNC(=O)Nc1ccc(-c2nc3c(c(N4CCOCC4)n2)CCN(C(=O)C(C)(C)C)C3)cc1 [Example 98, 1-ethyl-3-(4-(4-morpholino-7-pivaloyl-5,6,7,8-tetrahydropyrido[3,4-d]pyrimidin-2-yl)phenyl)urea] | > 10000 | < 100 |  |  | 1000 to 10000
CCNC(=O)Nc1ccc(-c2nc3c(c(N4CCOCC4)n2)CN(C)C3)cc1 [Example 69, 1-Ethyl-3-(4-(6-methyl-4-morpholino-6,7-dihydro-5H-pyrrolo[3,4-d]pyrimidin-2-yl)phenyl)urea] | 1000 to 10000 | < 100 |  |  | 1000 to 10000
CCNC(=O)Nc1ccc(-c2nc3c(c(N4CCOC[C@@H]4C)n2)CN(C)C3)cc1F [Example 85, (S)-1-ethyl-3-(2-fluoro-4-(6-methyl-4-(3-methylmorpholino)-6,7-dihydro-5H-pyrrolo[3,4-d]pyrimidin-2-yl)phenyl)urea] | > 10000 | 100 to 1000 | D (D >10 μM) |  | 
C[C@H]1COCCN1c1nc(-c2ccc(NC(=O)Nc3ccn(C)n3)cc2)nc2c1CN(C)C2 [Example 84, (S)-1-(1-methyl-1H-pyrazol-3-yl)-3-(4-(6-methyl-4-(3-methylmorpholino)-6,7-dihydro-5H-pyrrolo[3,4-d]pyrimidin-2-yl)phenyl)urea] | > 10000 | 100 to 1000 |  |  | 1000 to 10000
CCNC(=O)Nc1ccc(-c2nc3c(c(N4CCOC[C@@H]4C)n2)CN(CC(F)(F)F)C3)cc1 [Example 68, (S)-1-ethyl-3-(4-(4-(3-methylmorpholino)-6-(2,2,2-trifluoroethyl)-6,7-dihydro-5H-pyrrolo[3,4-d]pyrimidin-2-yl)phenyl)urea] | > 10000 | 100 to 1000 | D (D >10 μM) |  | 
C[C@H]1COCCN1c1nc(-c2ccc(NC(=O)NCCO)cc2)nc2c1CN(C)C2 [Example 73, (S)-1-(2-hydroxyethyl)-3-(4-(6-methyl-4-(3-methylmorpholino)-6,7-dihydro-5H-pyrrolo[3,4-d]pyrimidin-2-yl)phenyl)urea] | 1000 to 10000 | < 100 |  |  | 1000 to 10000
C[C@H]1COCCN1c1nc(-c2ccc(NC(=O)Nc3cccc(O)n3)cc2)nc2c1CN(C)C2 [Example 80, (S)-1-(6-hydroxypyridin-2-yl)-3-(4-(6-methyl-4-(3-methylmorpholino)-6,7-dihydro-5H-pyrrolo[3,4-d]pyrimidin-2-yl)phenyl)urea] | 1000 to 10000 | < 100 |  |  | 1000 to 10000
CCOC(=O)N1Cc2nc(-c3ccc(NC(=O)NCCO)c(F)c3)nc(N3CCOC[C@@H]3C)c2C1 [Example 104, (S)-ethyl-2-(3-fluoro-4-(3-(2-hydroxyethyl)ureido)phenyl)-4-(3-methylmorpholino)-5H-pyrrolo[3,4-d]pyrimidine-6(7H)-carboxylate] | > 10000 | 100 to 1000 | D (D >10 μM) |  | 
COC(=O)N1CCc2c(nc(-c3ccc(NC(=O)NC4CC4)cc3)nc2N2CCOC[C@@H]2C)C1 [Example 83, (S)-methyl 2-(4-(3-cyclopropylureido)phenyl)-4-(3-methylmorpholino)-5,6-dihydropyrido[3,4-d]pyrimidine-7(8H)-carboxylate] | > 10000 | < 100 | D (D >10 μM) |  | 
Cc1cc(NC(=O)Nc2ccc(-c3nc4c(c(N5CCOC[C@@H]5C)n3)CN(C)C4)cc2)no1 [Example 72, (S)-1-(4-(6-methyl-4-(3-methylmorpholino)-6,7-dihydro-5H-pyrrolo[3,4-d]pyrimidin-2-yl)phenyl)-3-(5-methylisoxazol-3-yl)urea] | > 10000 | 100 to 1000 | D (D >10 μM) |  | 
CCOC(=O)N1Cc2nc(-c3ccc(NC(=O)NC4CC4)cc3F)nc(N3CCOC[C@@H]3C)c2C1 [Example 131, (S)-ethyl 2-(4-(3-cyclopropylureido)-2-fluorophenyl)-4-(3-methylmorpholino)-5H-pyrrolo[3,4-d]pyrimidine-6(7H)-carboxylate] | > 10000 | 100 to 1000 | D (D >10 μM) |  | 
CCOC(=O)N1Cc2nc(-c3ccc(NC(=O)Nc4ccncc4)cc3)nc(N3CCOC[C@@H]3C)c2C1 [Example 121, (S)-ethyl 4-(3-methylmorpholino)-2-(4-(3-(pyridin-4-yl)ureido)phenyl)-5H-pyrrolo[3,4-d]pyrimidine-6(7H)-carboxylate] | > 10000 | < 100 | D (D >10 μM) |  | 
C[C@H]1COCCN1c1nc(-c2ccc(NC(=O)NC3CC3)cc2)nc2c1CCN(C(=O)C1CC1)C2 [Example 60, (S)-1-(4-(7-(cyclopropanecarbonyl)-4-(3-methylmorpholino)-5,6,7,8-tetrahydropyrido[3,4-d]pyrimidin-2-yl)phenyl)-3-cyclopropylurea] | > 10000 | < 100 | D (D >10 μM) | < 100 | 
CCNC(=O)Nc1ccc(-c2nc3c(c(N4CCOC[C@@H]4C)n2)CCN(C(=O)OC)C3)cc1 [Example 81, (S)-methyl 2-(4-(3-ethylureido)phenyl)-4-(3-methylmorpholino)-5,6-dihydropyrido[3,4-d]pyrimidine-7(8H)-carboxylate] | > 10000 | < 100 | D (D >10 μM) |  | 
CCNC(=O)Nc1ccc(-c2nc3c(c(N4CCOCC4)n2)CCN(C(C)=O)C3)cc1 [Example 97, 1-(4-(7-acetyl-4-morpholino-5,6,7,8-tetrahydropyrido[3,4-d]pyrimidin-2-yl)phenyl)-3-ethylurea] | 1000 to 10000 | < 100 |  |  | 1000 to 10000
CCNC(=O)Nc1ccc(-c2nc3c(c(N4CCOC[C@@H]4C)n2)CN(CC(C)(C)C)C3)cc1 [Example 67, (S)-1-ethyl-3-(4-(4-(3-methylmorpholino)-6-neopentyl-6,7-dihydro-5H-pyrrolo[3,4-d]pyrimidin-2-yl)phenyl)urea] | > 10000 | 100 to 1000 | D (D >10 μM) |  | 
COC(=O)N1Cc2nc(-c3ccc(NC(=O)NC4CC4)cc3)nc(N3CCOC[C@@H]3C)c2C1 [Example 86, (S)-methyl 2-(4-(3-cyclopropylureido)phenyl)-4-(3-methylmorpholino)-5H-pyrrolo[3,4-d]pyrimidine-6(7H)-carboxylate] | > 10000 | < 100 | D (D >10 μM) |  | 
CCNC(=O)Nc1ccc(-c2nc3c(c(N4CCOC[C@@H]4C)n2)CN(C(=O)OCC)C3)c(F)c1 [Example 113, (S)-ethyl-2-(4-(3-ethylureido)-2-fluorophenyl)-4-(3-methylmorpholino)-5H-pyrrolo[3,4-d]pyrimidine-6(7H)-carboxylate] | > 10000 | 100 to 1000 | D (D >10 μM) |  | 
